Test system: normal human umbilical vein endothelial cell (HUVEC)
Assay: NO production: nitrite (NO2) in HUVEC culture supernatant by HPLC
Format: cell-based
Details: 24-hour culture, vs control (PBS), FIG. 1
Method: A normal human umbilical vein endothelial cell (HUVEC) line available from Clonetics (SanDiego, Calif., USA) was used with EGM-2 Bullet Kit medium containing 2% FBS (Takara Bio). The cells were cultured in at 37° C., in 5% CO2 incubator, and used for experiment after 4 to 6 passages. Citrulline and reduced glutathione were obtained from Kyowa Hakko Bio.
A cell suspension (0.45 mL) with the adjusted initial cell combination of 5×10^5 cells/mL was inoculated in a 24-well plate (IWAKI). After 40-hour culture, the media were replaced with those containing citrulline (final concentration 0.3 mM; citrulline group), reduced glutathione (final concentration 1 mM: high-dose glutathione group), and a citrulline and reduced glutathione mixture (citrulline final concentration 0.3 mM; glutathione final concentration 0.3 mM; citrulline+low -dose glutathione group). Media with the sole addition of solvent (PBS) were used as a control group. After 24-hour culture, the cell culture (100 μL) was centrifuged at 12,000 rpm for 10 minutes, and the concentration of nitrite (NO2), which is the stable NO metabolite, in culture supernatant was quantified by HPLC (ENO-20, EICOM).

| SMILES | effect on NO production (nitrite NO2 concentration in medium) (citrulline final concentration 0.3 mM) | effect on NO production (nitrite NO2 concentration in medium) (reduced glutathione final concentration 1 mM (high-dose)) |
| --- | --- | --- |
| NC(=O)NCCC[C@H](N)C(=O)O [citrulline] | no effect on NO production | – |
| N[C@@H](CCC(=O)N[C@@H](CS)C(=O)NCC(=O)O)C(=O)O [glutathione, reduced glutathione] | – | no effect on NO production |
